This note sets out measurements from patent publication US8435950B2, “Anti-aging peptides and cosmetic and/or pharmaceutical composition containing same” (ISP Investments, priority 2009, dated 2013).

Where no end group is shown, it is not given here.

Assay [1] deals with Clock protein. Description: Western blot of Clock protein expression in cultured fibroblasts. The settings on record: 16 hr, peptide diluted to 1% (from a 10^-4M solution), untreated control = 100%, Experiment 1. The format is cell-based. As to the method: (§1) A study of the activating effect of the peptide SEQ ID no.1 was carried out by evaluating the expression of the Clock protein by western blot in cultured fibroblasts and by immunohistochemistry by labeling the Clock protein by means of immunolabeling. The technique of western blotting is a semi-quantitative method which makes it possible to evaluate the level of Clock protein in dermal cells.
Cultured fibroblasts are cultivated in containers with a diameter of 100 mm at 37° C. in a humidified atmosphere containing 5% CO2 for 16 hr in the presence or absence of the peptide SEQ ID no.1, diluted to 1% (from a 10^−4M solution). The cells are rinsed and then removed from the support with the aid of an extraction buffer (20 mM TRIS, 150 mM NaCl, 10 mM EDTA, 0.2% triton […]) in the presence of a cocktail of protease inhibitors (Sigma). The proteins thus extracted are centrifuged at 4° C. at 10000 rpm, before being dosed by the BCA protein dosing kit (Pierce). The cellular lysates are mixed with a denaturing buffer and subjected to SDS-PAGE electrophoresis. The gel used is 4-12% Nupage (Invitrogen). The proteins are then transferred to a nitrocellulose membrane (Pal corporation). […] The quantitative evaluation of the proteins present in the cells was carried out using the chemiimager software (Alpha innotech Corporation USA).
Background: In western blotting, separated proteins are transferred to a membrane and probed.

Assay [2] deals with Clock protein. The assay is described as follows: Immunohistochemistry (immunolabeling) of Clock protein in cultured fibroblasts. The format is cell-based. The settings on record: 18 hr, peptide diluted 1% (from a 10^-4M solution), versus untreated. As to the method: as §1
Cultured fibroblasts are cultivated in 8-well chambers (labteck) at 37° C. in a humidified atmosphere containing 5% CO2 for 18 hr in the presence or absence of the peptide SEQ ID no.1, diluted 1% (from a 10^−4M solution). Untreated cells are cultivated at the same time and serve as a control. On the day of labeling the cells are rinsed, fixed in a mixture (2% glutaraldehyde—2% formaldehyde) for 3 minutes and then rinsed. The primary antibody (ABcam), diluted 1/250 is applied for 1 hour and a secondary antibody, diluted 1/50 and coupled to a fluorochrome is applied for 1 hour. The cells are then mounted between a slide and cover glass in a suitable mounting medium and observed under epifluorescence microscope.

The subject of assay [3] is Clock protein. The assay is described as follows: Ex vivo immunolabeling of Clock protein in skin biopsies. Conditions: human skin ex vivo, peptide diluted to 1%, topical, 48 hr. The class given is cell-based. Here is the method: (§2) A study of the activating effect of the peptide SEQ ID no.1 was carried out by evaluating the expression of Clock and Per-1 proteins in skin biopsies ex vivo.
(§3) Ex vivo studies by immunolabeling have made it possible to evidence the expression of Clock and Per-1 proteins in skin samples. Samples of human skin are cultured at the air/liquid interface. The peptide SEQ ID no.1 diluted to 1% (from a 10^−4M solution) is applied topically to these samples for 48 hr at a rate of two times per 24 hr.
(§4) Skin samples not treated with the peptide SEQ ID no.1 serve as a control. The skin samples are fixed with 10% formaldehyde and enclosed in paraffin. Sectional cuts of 3 μm are then made with a microtome. The immunolabeling is carried out after removal of the paraffin and unmasking of the antigenic sites.
The immunolabeling for the Clock protein is carried out by means of an antibody (ABcam) diluted 1/250 and a secondary antibody diluted 1/50 and coupled to a fluorochrome.
(§5) The slides are then mounted in a suitable medium and observed under epifluorescence microscope (Nikon Eclipse E600).

For assay [4], the system named is Per-1 protein. The assay is described as follows: Ex vivo immunolabeling of Per-1 protein in skin biopsies. The format is cell-based. Conditions: human skin ex vivo, peptide diluted to 1%, topical, 48 hr. As to the method: as §2, §3, §4
The immunolabeling for the Per-1 protein is carried out by a polyclonal antibody (Cosmobio) diluted 1/100 and a secondary antibody diluted 1/50 and coupled to a fluorochrome.
as §5

The subject of assay [5] is Clock protein. Description: Ex vivo immunolabeling of Clock protein in skin biopsies aged artificially during culture. The class given is cell-based, human. Here is the method:
(§6) A study of the activating effect of the peptide SEQ ID no.1 was carried out by evaluating the expression of Clock and Per-1 proteins in skin models, aged artificially during culture. The analysis was carried out after 62 hr and 134 hr of culturing.
(§7) Ex vivo studies by immunolabeling have made it possible to evidence the expression of Clock and Per-1 proteins in skin samples aged during culture. Samples of human skin are cultured at the air/liquid interface for 62 hr and 134 hr. The peptide SEQ ID no.1 diluted to 1% (from a 10^−4M solution) is applied topically to these samples at a rate of two times per day during the period of the experiment.
(§8) Skin samples not treated with the peptide SEQ ID no.1 serve as a control. The skin samples are fixed with 10% formaldehyde and enclosed in paraffin. Sectional cuts of 3 μm are made with a microtome. The immunolabeling is carried out after removal of the paraffin and unmasking of the antigenic sites. The immunolabeling for the Clock protein is carried out by means of an antibody (ABcam) diluted 1/250 and a secondary antibody diluted 1/50 and coupled to a fluorochrome.
as §5

Assay [6] deals with Per-1 protein. The assay is described as follows: Ex vivo immunolabeling of Per-1 protein in skin biopsies aged artificially during culture. The class given is cell-based, human. The settings on record: after 62 hr of treatment. Here is the method: as §6, §7, §8
The immunolabeling for the Per-1 protein is carried out by a polyclonal antibody (Cosmobio) diluted 1/100 and a secondary antibody diluted 1/50 and coupled to a fluorochrome. […]

For assay [7], the system named is skin biopsies. Description: Protective effect on morphology of skin biopsies during aging (hematoxyline/eosin histology). The format is cell-based, human. Conditions: 62 and 134 h culture, peptide diluted to 1% topically twice per day; untreated skin damaged. As to the method:
A study of the protective effect of the peptide SEQ ID no.1 was carried out in parallel by evaluating the damage caused by aging at 62 hr and 134 hr by way of immunohistology by means of colouration of sectional cuts of skin.
Samples of human skin are placed in culture at the air/liquid interface. The peptide SEQ ID no.1 diluted to 1% (from a 10^−4M solution) is applied topically to these samples for 62 hr and 134 hr. The application is renewed twice per day during the period of the experiment. Untreated skin samples serve as a control during the experiment. The skin samples are fixed with 4% formaldehyde and enclosed in paraffin. Sectional cuts of 3 μm are made with a microtome. The tissues are coloured using hematoxyline (which colours the cell nuclei blue-black) and eosin, which is specific to the colouration of cytoplasms. The morphological structure of the biopsies is then assessed under transmission microscope.

As to “Ser-Pro-Leu-Gln-NH2 (SPLQ-NH2) [SEQ ID no.1]”, the “Intensity (%) of Clock protein, western blot” value in assay [1] stood at 179%. In addition, the “Expression of the Clock protein by labeling in fibroblasts” value in assay [2] is listed as “increase in the expression of the Clock protein”. In addition, in assay [3], the “Amount of Clock protein compared with untreated skin” value is “slightly greater”. Moreover, in assay [4], the “Amount of Per-1 protein compared with untreated skin” value is “greater”. In assay [5] (after 62 hr of culturing), the “Labeling of the Clock protein compared to untreated control” value is reported as “increased”. In addition, the “Labeling of the Clock protein compared to untreated control skin” value in assay [5] (after 134 hr) is on record as “largely increased”. The “Expression of the PER-1 protein compared to untreated” value in assay [6] is “increased”. In assay [7], the “Morphological structure of skin biopsies / damage caused by aging” value is listed as “well-preserved morphological structure”.
